From patent US10800792B2, “Inhibitors of Bruton's tyrosine kinase and method of their use” (JANSSEN PHARMACEUTICA NV, priority 2015, dated 2020)

Biological target: unphosphorylated-BTK kinase domain (UP-BTK), GST-tagged human BTK (389-659aa) (Homo sapiens (Human), UniProt Q06187)
Assay: BTK kinase Lanthascreen binding assay
Conditions: Lanthascreen tracer competition, 60 minutes incubation; pIC50 = negative log of the IC50 in molar
In short: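 Compound binding to the unphosphorylated kinase domain was monitored by displacement of a fluorescently labelled tracer in a Lanthascreen format. Potency is given as pIC50, the negative log of the molar IC50.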

Chain of unphosphorylated-BTK kinase domain (UP-BTK), GST-tagged human BTK (389-659aa) (Q06187 389-659): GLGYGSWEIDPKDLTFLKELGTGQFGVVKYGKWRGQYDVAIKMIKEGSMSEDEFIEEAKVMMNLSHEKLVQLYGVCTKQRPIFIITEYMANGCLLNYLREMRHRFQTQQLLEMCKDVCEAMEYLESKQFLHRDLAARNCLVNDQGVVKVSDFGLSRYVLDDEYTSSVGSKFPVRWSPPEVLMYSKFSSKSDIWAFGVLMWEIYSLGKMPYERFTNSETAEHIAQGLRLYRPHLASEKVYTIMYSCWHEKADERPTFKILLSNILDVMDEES

Row | BTK_I_binding pIC50 | SMILES
1 | 7.4 | Cc1ccc(Oc2ccccc2)cc1N1C(=O)Nc2c(C(=O)N[C@@H]3CCCN(C(=O)/C(C#N)=C/C4CC4)C3)sc3nccc1c23 [Example 859, (R,E)-N-(1-(2-Cyano-3-cyclopropylacryloyl)piperidin-3-yl)-5-(2-methyl-5-phenoxyphenyl)-4-oxo-4,5-dihydro-3H-1-thia-3,5,8-triazaacenaphthylene-2-carboxamide]
2 | 7.3 | C=CC(=O)N1CCC[C@H](NC(=O)c2sc3nccc4c3c2NC(=O)N4c2ccc(Oc3ccccc3)cc2C)C1 [Example 863, (S)—N-(1-Acryloylpiperidin-3-yl)-5-(2-methyl-4-phenoxyphenyl)-4-oxo-4,5-dihydro-3H-1-thia-3,5,8-triazaacenaphthylene-2-carboxamide]
3 | 7.3 | C=CC(=O)N1CC[C@H](NC(=O)c2sc3nccc4c3c2NC(=O)N4c2ccc(Oc3ccccc3)cc2C)C1 [Example 864, (S)—N-(1-Acryloylpyrrolidin-3-yl)-5-(2-methyl-4-phenoxyphenyl)-4-oxo-4,5-dihydro-3H-1-thia-3,5,8-triazaacenaphthylene-2-carboxamide]
4 | 7.3 | Cc1cc(Oc2ccccc2)ccc1N1C(=O)Nc2c(C(=O)N[C@@H]3CCCN(C(=O)/C=C/CN4CCCC4)C3)sc3nccc1c23 [Example 867, (R,E)-5-(2-Methyl-4-phenoxyphenyl)-4-oxo-N-(1-(4-(pyrrolidin-1-yl)but-2-enoyl)piperidin-3-yl)-4,5-dihydro-3H-1-thia-3,5,8-triazaacenaphthylene-2-carboxamide]
5 | 7.3 | Cc1cc(Oc2ccccc2)ccc1N1C(=O)Nc2c(C(=O)N[C@@H]3CCN(C(=O)/C(C#N)=C/C(C)(C)C)C3)sc3nccc1c23 [Example 868, (R,E)-N-(1-(2-Cyano-4,4-dimethylpent-2-enoyl)pyrrolidin-3-yl)-5-(2-methyl-4-phenoxyphenyl)-4-oxo-4,5-dihydro-3H-1-thia-3,5,8-triazaacenaphthylene-2-carboxamide]

Continued, molecule first:

Row | SMILES | BTK_I_binding pIC50
6 | O=C(N[C@@H]1CCCNC1)c1sc2nccc3c2c1NC(=O)N3c1ccc(Oc2ccccc2)cc1 [Example 860, (R)-4-oxo-5-(4-phenoxyphenyl)-N-(piperidin-3-yl)-4,5-dihydro-3H-1-thia-3,5,8-triazaacenaphthylene-2-carboxamide] | 7.4
7 | Cc1cc(Oc2cccc(COc3ccccc3C#N)c2)ccc1N1C(=O)Nc2c(C(=O)N[C@@H]3CCCN(C(=O)/C(C#N)=C/C4CC4)C3)sc3nccc1c23 [Example 861, (R,E)-N-(1-(2-Cyano-3-cyclopropylacryloyl)piperidin-3-yl)-5-(4-(3-((2-cyanophenoxy)methyl)phenoxy)-2-methylphenyl)-4-oxo-4,5-dihydro-3H-1-thia-3,5,8-triazaacenaphthylene-2-carboxamide] | 7.3
8 | COc1ccc(N2C(=O)Nc3c(C(=O)N[C@@H]4CCCN(C(=O)/C(C#N)=C/C5CC5)C4)sc4nccc2c34)c(C)c1 [Example 862, (R,E)-N-(1-(2-Cyano-3-cyclopropylacryloyl)piperidin-3-yl)-5-(4-methoxy-2-methylphenyl)-4-oxo-4,5-dihydro-3H-1-thia-3,5,8-triazaacenaphthylene-2-carboxamide] | 7.3
9 | Cc1cc(Oc2ccccc2)ccc1N1C(=O)Nc2c(C(=O)NC3CCNCC3)sc3nccc1c23 [Example 865, 5-(2-Methyl-4-phenoxyphenyl)-4-oxo-N-(piperidin-4-yl)-4,5-dihydro-3H-1-thia-3,5,8-triazaacenaphthylene-2-carboxamide] | 7.3
10 | COc1ccccc1Oc1ccc(N2C(=O)Nc3c(C(=O)NC4CCCNC4)sc4nccc2c34)c(C)c1 (stereo not shown) [Example 870, 5-(4-(2-Methoxyphenoxy)-2-methylphenyl)-4-oxo-N-(piperidin-3-yl)-4,5-dihydro-3H-1-thia-3,5,8-triazaacenaphthylene-2-carboxamide] | 7.3
